Results from patent US20260053886A1, “ANTICANCER AGENT” (The Trustees of Princeton University, priority 2022, published 2026).
≈ marks a conversion by molar mass, not a printed value. Where “and” joins values, the source holds several entries; their conditions need not be identical. Identical values can stand only once. Like-named read-outs stand apart in the source and are kept apart here. Non-standard residues stand in square brackets, D forms with d. Residues, ends and D or L forms follow the SMILES beside them. Phe(βS-OH) = N[C@H](C(=O)O)[C@@H](O)c1ccccc1; NMeH = CN[C@@H](Cc1c[nH]cn1)C(=O)O; Hyp = O=C(O)[C@@H]1C[C@@H](O)CN1; NMeF = CN[C@@H](Cc1ccccc1)C(=O)O; NMeL = CN[C@@H](CC(C)C)C(=O)O; Dap = NC[C@H](N)C(=O)O; Sar = CNCC(=O)O

What was measured:
B. subtilis 168 = assay: effect on microbial growth (MIC)
V. cholerae = assay: effect on microbial growth (MIC)
S. cerevisiae = assay: effect on microbial growth (MIC)
S. epidermidis = assay: effect on microbial growth (MIC); assay type: cell-based
[1] = test system: colon cancer cell line HCT116; assay: anticancer assay, growth inhibition, dose-response; assay type: cell-based
P. aeruginosa PAO1 = assay: effect on microbial growth (MIC); assay type: cell-based
S. aureus Newman = assay: effect on microbial growth (MIC); assay type: cell-based
[2] = test system: breast cancer cell line MDA-MB-231; assay: anticancer assay, growth inhibition, dose-response; assay type: cell-based
E. faecalis OG1RF = assay: effect on microbial growth (MIC); assay type: cell-based
B. subtilis 3610 = assay: effect on microbial growth (MIC); assay type: cell-based
M. luteus = assay: effect on microbial growth (MIC); assay type: cell-based
E. coli K12 = assay: effect on microbial growth (MIC)
S. pombe = assay: effect on microbial growth (MIC)
S. rimosus Δrim::aprR = assay: antimicrobial activity, cell viability (wet pellet weight) relative to DMSO; assay type: cell-based; settings: Streptomyces rimosus, 120 h, read-out: half-maximal inhibitory concentration (IC50)
Method: (§1) Separately, small-scale fermentation of S. rimosus Δrim::apr^R was performed as described above with the following concentrations of phytosphingosine: 0, 1.25, 2.5, 5, 10, 20, 40, 80, 160 μM. After 5 d, cells were collected by centrifugation (4000 g, 1 h) and the wet weight of pellets were measured.
Cell viability relative to DMSO-treated samples were graphed and fit to a dose-response curve in Prism 9 to obtain the IC50 value. In addition, culture supernatants were processed via SPE as described above and samples were subjected to HR-HPLC-MS analysis. The extracted ion chromatograms of momomycin were integrated and the data were graphed to represent the induction effect of phytosphingosine on momomycin production at different concentrations. All data points were taken from biological duplicates.

[3] = test system: momomycin production in S. rimosus Δrim::aprR; assay: induction of momomycin production (HR-HPLC-MS extracted ion chromatograms); assay type: cell-based; settings: Streptomyces rimosus, 120 h, read-out: half-maximal elicitor concentration (EC50)
Method: A seed culture of S. rimosus Δrim::apr^R was inoculated in TSBY medium as described above, which was used to start fermentation cultures in 125 mL Erlenmeyer flasks with the final concentration of cells of 0.05% (w/v). Each flask contained 25 mL R4 medium, supplemented with various concentrations of elicitors or equal volumes of DMSO as control. After 5 d of cultivation at 30° C./250 rpm, the cultures were spun down and processed by solid phase extraction (SPE). Specifically, 5 mL of supernatant was filtered and loaded onto STRATA® C18-E column (Phenomenex, 55 μm, 70 Å, 50 mg), which had been activated with MeOH and equilibrated with H2O. The column was washed with 1 mL H2O and eluted by 1 mL MeOH. The samples in MeOH were dried in vacuo, resuspended in 50 μL MeCN in H2O, and subjected to HR-HPLC-MS analysis.
as §1
Cell viability relative to DMSO-treated samples were graphed and fit to a dose-response curve in Prism 9 to obtain the IC50 value. In addition, culture supernatants were processed via SPE as described above and samples were subjected to HR-HPLC-MS analysis. […]

CC(C)C[C@H]1C(=O)N(C)[C@@H](Cc2ccccc2)C(=O)N[C@@H](Cc2ccc(O)cc2)C(=O)N[C@@H]([C@@H](O)c2ccccc2)C(=O)N[C@@H](CC(=O)O)C(=O)N(C)CC(=O)N[C@@H](CN)C(=O)N2C[C@H](O)C[C@H]2C(=O)N[C@@H](CN)C(=O)N(C)[C@@H](Cc2ccccc2)C(=O)N(C)[C@@H](Cc2cnc[nH]2)C(=O)N1C [momomycin] (cyclo(D[Sar][Dap][Hyp][Dap][NMeF][NMeH][NMeL][NMeF]Y[Phe(βS-OH)]))
minimum inhibitory concentration (MIC) (B. subtilis 168): above 64 μg/mL
minimum inhibitory concentration (MIC) (V. cholerae): above 64 μg/mL
minimum inhibitory concentration (MIC) (S. cerevisiae): above 64 μg/mL
minimum inhibitory concentration (MIC) (S. epidermidis): above 64 μg/mL
IC50 ([1]; colorectal carcinoma / colon cancer cell line HCT116, FIG. 2A, read-out: IC50): 1100 nM and ~1100 nM
IC50 ([1]; colorectal carcinoma HCT116, dose-response curve FIG. 2A): 1.5 µg/mL
minimum inhibitory concentration (MIC) (P. aeruginosa PAO1): above 64 μg/mL
minimum inhibitory concentration (MIC) (S. aureus Newman): above 64 μg/mL
IC50 ([2]; adenocarcinoma MDA-MB-231, FIG. 2B, read-out: IC50): 1200 nM
IC50 ([2]; adenocarcinoma MDA-MB-231, dose-response curve FIG. 2B): 1.7 µg/mL
minimum inhibitory concentration (MIC) (E. faecalis OG1RF): above 64 μg/mL
minimum inhibitory concentration (MIC) (B. subtilis 3610): above 64 μg/mL
minimum inhibitory concentration (MIC) (M. luteus): 64 µg/mL (≈ 45.8 µM)
minimum inhibitory concentration (MIC) (E. coli K12): above 64 μg/mL
minimum inhibitory concentration (MIC) (S. pombe): above 64 μg/mL

CCCCCCCCCCCCCC[C@@H](O)[C@@H](O)[C@@H](N)CO [phytosphingosine]
IC50 (S. rimosus Δrim::aprR): 37.8 µM
EC50 [3]: 16.9 µM
